How the values were obtained:
L-Db cells = type: cell-based, Murine; conditions: BFA; functional TAP complex; Fig. 6 a
T2-Db cells [1] = type: cell-based; conditions: chloroquine: preincubation 80 μM, infection 60 μM, assay 5 μM; Fig. 6
T2-Db cells [2] = assay: 4-h 51Cr CTL assay, clone F5, T2-Db cells with added synthetic peptide; type: cell-based
[3] = T2-Db lysate with protease inhibitors; Fig. 5
T2-Kk cells = type: cell-based; conditions: Kk-restricted anti-[…] line, E:T 10:1, Fig. 9 e

C[C@H]1CCC/C=C/[C@@H]2C[C@H](O)C[C@H]2[C@H](O)/C=C/C(=O)O1 [BFA, brefeldin A]
effect on presentation of L+ and L- polypeptides in L-Db cells (L-Db cells): Inhibition of presentation of both the L+ and L-polypeptides in L-Db cells

CCN(CC)CCCC(C)Nc1ccnc2cc(Cl)ccc12 (stereo not drawn) [chloroquine]
effect on processing and presentation of L+M364 and L+IMP in T2-Db cells (T2-Db cells [1]): no effect

IASNENMDAM [365-374]
relative potency in sensitizing T2-Db cells for lysis (T2-Db cells [2]; relative to 366-374, Fig. 3 a): followed by 365-374

MASNENMDAM [M366-374]
in vitro degradation after cell lysis [3]: Little in vitro degradation of M366-374 occurs after cell lysis

QIASNENMDAM [364-374]
loss of potency in sensitizing T2-Db cells for lysis (fold less potent) (T2-Db cells [2]; Fig. 3 a): over 10,000 fold

SDYEGRLI
lowest peptide concentration at which pulsed T2 transfectants are recognized (T2-Kk cells): ≤ 0.5 nM

— PMC2191966 (The Journal of Experimental Medicine, 1995)
